Assay [1] deals with human cell lysate (HEK293T). Kind of assay: IA-DTB chemoproteomics, proteome-wide engagement in lysate. The format is binding. Conditions: engaged peptides log2 CR ≤−1, P-value ≤0.05 vs DMSO. As to the method:
HEK293T lysate supplemented with recombinant SspH1 (161–700) and SspH2 (166–783) was treated with a dilution series […] of either compound 6 or 7 for four hours at RT. Following compound treatments, we used an iodoacetamide-desthiobiotin (IA-DTB) competitive chemoproteomics workflow to assess cysteine engagement.[52] Comparison of DMSO treated lysate with compound treated lysate enabled identification of peptides where IA-DTB labelling of cysteines was blocked due to fragment engagement (Fig. S5). […] Competition of the SspH2 C580 peptide occurred at lower concentrations compared to the SspH1 C492 peptide, which corroborated our previous kinetics experiments that both compounds label SspH2 faster than SspH1 (Fig. S4).
A pellet of 50 × 10^6 HEK293T cells was resuspended in 5 mL lysis buffer (50 mM HEPES pH 8.0, 150 mM NaCl, 1% IGEPAL, 0.1% SDS, 0.5% Na-deoxycholate, supplemented with protease inhibitor cocktail (Sigma-Aldrich, P8340)). The lysate was sonicated and centrifuged (10 min, 17 000 × g) and the soluble fraction isolated. Protein concentrations were measured using a Rapid BCA Gold Protein Assay Kit (Thermo Scientific, A53226) and diluted to 0.75 mg mL^−1 with lysis buffer. The lysate was then spiked with 0.2 μM of each recombinant SspH1 (aa 161–700) and SspH2 (aa 166–783). […]

The target of the next assay is SspH1 (161–700) (Salmonella typhimurium, UniProt D0ZVG2). Put plainly: E2–Ub discharge assay. The format is biochemical. More on the design: Recombinant IpaH9.8 (21–545) and SspH1 (161–700) were incubated at 0.5 μM; His-tag (N, cleaved yes); made in house; host or cells: E. coli BL21. Conditions: SspH1 pre-labelled with compound overnight at RT; UbcH5A–Ub-cy3 1 μM, 0–30 minutes. The source says:
We next wanted to understand whether compounds 6 and 7 interfered with SspH1 E3 activity and turned to in vitro assays to assess E3 ligase activity. In the absence of substrate, NEL E3 ligases non-productively discharge ubiquitin from the E2–Ub thioester, a reaction that proceeds via an unstable E3-thioester intermediate.[27] This activity can be followed by E2–Ub discharge assays (Fig. 4A). We compared discharge activity of SspH1 with UbcH5A–Ub-cy3 (E2–Ub*) pre-treated with a DMSO control or compounds 6 or 7 (Fig. 4B). To ensure complete compound labelling, SspH1 was pre-incubated with the compounds overnight at room temperature, as opposed to at 4 °C which enabled us to study kinetics previously.
Fig. 4 SspH1 in vitro inhibition with compounds 6 and 7. (A) Discharge assay schematic; (B) E2–Ub discharge time course assay with SspH1 pre-treated with either DMSO or compounds 6 or 7. UbcH5A–Ub-cy3 (1 μM) was incubated at RT for 0–30 minutes with SspH1 (residues 161–700, 50 nM) which had been pre-labelled with 6 or 7 at RT overnight. (C) Substrate ubiquitination assay schematic; (D) PKN1 ubiquitination time course assay with SspH1 pre-treated with either DMSO or compounds 6 or 7. […]

The values that follow come from PMC12584752, “Covalent fragment screening to inhibit the E3 ligase activity of bacterial NEL enzymes SspH1 and SspH2” (RSC Chemical Biology, 2025).

The structures appear in SMILES notation.

Sequence of SspH1 (161–700) (D0ZVG2 161-700): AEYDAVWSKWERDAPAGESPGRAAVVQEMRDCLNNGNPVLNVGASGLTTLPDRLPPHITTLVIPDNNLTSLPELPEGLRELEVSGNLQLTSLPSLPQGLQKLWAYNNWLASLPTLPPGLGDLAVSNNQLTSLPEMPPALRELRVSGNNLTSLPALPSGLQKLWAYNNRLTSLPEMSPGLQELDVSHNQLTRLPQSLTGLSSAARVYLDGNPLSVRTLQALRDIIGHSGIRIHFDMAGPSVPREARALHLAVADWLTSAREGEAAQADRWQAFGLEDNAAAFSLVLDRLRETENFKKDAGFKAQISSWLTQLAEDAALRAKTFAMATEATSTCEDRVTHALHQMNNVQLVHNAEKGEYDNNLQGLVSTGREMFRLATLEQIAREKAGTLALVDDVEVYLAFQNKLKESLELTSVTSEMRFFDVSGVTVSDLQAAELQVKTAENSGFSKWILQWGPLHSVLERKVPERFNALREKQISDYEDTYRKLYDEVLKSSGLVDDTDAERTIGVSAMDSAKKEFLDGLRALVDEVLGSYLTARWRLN

Regarding `Cc1cc(-c2nc3ccccc3n2C2CCN(C(=O)CCl)CC2)cc(C)c1O.Cl` [compound 6], the “proteome-wide labelling in human cell lysate” value in assay [1] is on record as “promiscuous protein labellers”. Besides, the “SspH1 E2–Ub discharge activity” value at SspH1 (161–700) is recorded as “completely abrogated”.

For `Cl.O=C(CCl)N1CCC(n2c(-c3ccc(C(F)(F)F)cc3)nc3ccccc32)CC1` [compound 7], the “proteome-wide labelling in human cell lysate” value in assay [1] is “promiscuous protein labellers”. At SspH1 (161–700), the “SspH1 E2–Ub discharge activity” value was “completely abrogated”.
